Assay results published in patent US11612580B2, “Compositions for inhibiting 3′ repair exonuclease 2 and methods of screening for such compositions” (THE BOARD OF REGENTS OF THE UNIVERSITY OF TEXAS SYSTEM, priority 2017, dated 2023).

Legend:
msh2^−/− cells = test: puro(A)10 polymerase slippage assay, puromycin resistant colonies; type: cell-based, mouse; details: msh2^−/− cells with puro(A)10 reporter; 10 μM TREX2 inhibitor with puromycin; colonies counted about day 10; DMSO versus compounds p<0.02 (FIGS. 8B, 8C)
[1] = system: mouse embryonic stem (ES) cells; test: reduction of mutations in mouse embryonic stem (ES) cells; type: cell-based; details: hits from Chembridge Diverset screen
Excerpt: Assays as described here were used to screen a Chembridge Diverset library (30,000 compounds). […] These small molecules are: 4-benzoyl-2-methyphenyl (2-nitrophenoxy) acetate; N-benzyl-2-([bis(furan-2-yl)-1,2,4-triazin-3-yl] sulfanyl) acetamide; 6-(benzylcarbamoyl)-1-methycyclohex-3-ene-1-carboxylic acid; 8-(phenylamino)naphthalene-1-sulfonic acid; and benzyl 6-(furan-2-yl)-3-methyl-4-oxo-4,5,6,7-tetrahydro-1H-indole-2-carboxylate. […] TX2Is appear to be nontoxic to cells and TREX2-deletion was asymptomatic for >50% of life span.

Compound | spontaneous polymerase slippage (fraction of puromycin resistant cells) (msh2^−/− cells) | mutations in mouse embryonic stem (ES) cells [1]
O=S(=O)(O)c1cccc2cccc(Nc3ccccc3)c12 [Compound 6, 8-(phenylamino)naphthalene-1-sulfonic acid] | reduce spontaneous polymerase slippage | reduce a range of mutations
Cc1cc(C(=O)c2ccccc2)ccc1OC(=O)COc1ccccc1[N+](=O)[O-] [Compound 1, 4-benzoyl-2-methyphenyl (2-nitrophenoxy) acetate] | reduce spontaneous polymerase slippage | reduce a range of mutations
O=C(CSc1nnc(-c2ccco2)c(-c2ccco2)n1)NCc1ccccc1 [Compound 10, N-benzyl-2-([bis(furan-2-yl)-1,2,4-triazin-3-yl]sulfanyl) acetamide] | reduce spontaneous polymerase slippage | reduce a range of mutations
CC1(C(=O)O)CC=CCC1C(=O)NCc1ccccc1 (stereo not drawn) [Compound 11, 6-(benzylcarbamoyl)-1-methycyclohex-3-ene-1-carboxylic acid] | reduce spontaneous polymerase slippage | reduce a range of mutations
Cc1c(C(=O)OCc2ccccc2)[nH]c2c1C(=O)CC(c1ccco1)C2 (stereo not drawn) [benzyl 6-(furan-2-yl)-3-methyl-4-oxo-4,5,6,7-tetrahydro-1H-indole-2-carboxylate] | – | reduce a range of mutations
